According to paper PMC10525927, “First Generation of Antioxidant Precursors for Bioisosteric Se-NSAIDs: Design, Synthesis, and In Vitro and In Vivo Anticancer Evaluation” (Antioxidants, 2023):
Where two headings read alike, the source gives them in different places.

Legend:
[1] = system: PC-3 prostate cancer cells; assay: MTT cell viability assay, PC-3; format: cell-based; settings: 48 h, mean ± SD
Experimental: (§1) The cell lines were purchased from the American Type Culture Collection (ATCC). The cancer cell lines DU-145, PC-3, T-47D, MDA-MB-231, H1299, and A549, and the non-tumorigenic cells (184B5 and BEAS-2B), were maintained in RPMI 1640 medium (Gibco, Alcobendas, Madrid, Spain) supplemented with 10% fetal bovine serum (FBS; Gibco) and 1% antibiotics (10.00 units/mL penicillin and 10.00 mg/mL streptomycin; Gibco). Colon cancer cells HT-29 and HCT-116 were cultured in McCoy’s 5A medium (Gibco) supplemented with 10% fetal bovine serum (FBS; Gibco) and 1% antibiotics (10.00 units/mL penicillin and 10.00 mg/mL streptomycin; Gibco). Cells were maintained in tissue culture flasks at 37 °C and 5% CO2. The culture medium was replaced every three days.
(§2) The antiproliferative activity and selectivity in vitro of the Se-NSAID derivatives were determined by the (3-(4,5-dimethylthiazol-2-yl)-2,5-diphenyltetrazolium bromide) (MTT) assay. Compounds were dissolved in DMSO at a concentration of 0.01 M and serial dilutions were prepared. The Se-NSAID derivatives were tested at seven concentrations ranging between 1 and 100 µM in the colon (HT-29 and HCT-116), prostate (DU-145 and PC-3), breast (MDA-MB-231 and T-47D), and lung (H1299 and A549) cancer cell lines. The non-tumorigenic breast (184B5) and lung (BEAS-2B) cell lines were also tested to assess the selectivity of the compounds following the same procedure. A total of 1 × 10^4 cells were seeded per well in 96-well plates and incubated at 5% CO2 and 37 °C for 24 h. Then, cells were treated with either DMSO or increasing concentrations of the corresponding Se-NSAID derivatives for 48 h. A volume of 20 µL of MTT (5 mg/mL) was added to each well 2.5 h before the termination point. At the end of the experiment, the medium was removed, and the resultant formazan crystals formed by mitochondrial reduction of MTT were dissolved in 50 µL of DMSO. Absorbance was measured at 550 nm. IC50, GI50, TGI, and LC50 values were calculated using OriginPro version 8.5.1. software by nonlinear curve fitting. Selectivity indexes (SI) were calculated as the ratio of the IC50 values determined for the nonmalignant and the tumoral cells in the breast (IC50 (184B5)/IC50 (MDA-MB-231) and IC50 (184B5)/IC50 (T-47D)) and lung (IC50 (BEAS-2B)/IC50 (H1299) and IC50 (BEAS-2B)/IC50 (A549)) cell lines. Data were obtained from at least three independent experiments performed in triplicates.

[2] = system: BEAS-2B non-tumorigenic lung (bronchial epithelium) cells; assay: MTT cell viability assay, BEAS-2B; format: cell-based; settings: 48 h, mean ± SD; for IC50: nonmalignant lung cells
Experimental: as §1, §2

[3] = system: panel of eight cancer cell lines; assay: MTT cell viability assay, statements on the whole panel; format: cell-based; settings: 48 h
Experimental: as §1, §2

[4] = system: HCT-116 colon cancer xenograft; assay: Tumor growth inhibition on HCT-116 colon cancer xenograft model; format: in vivo; settings: 10 mg/Kg IP
Experimental: Female mice of 4–5 weeks of age (The Jackson Laboratory, Bar Harbor, ME, USA) were kept on the daily cycle of 12 h light/dark and received food and water ad libitum throughout the studies. All animal procedures were performed following the National Institutes of Health (NIH) Guide for the Care and Use of Laboratory Animals and protocols were approved by the Animal Care and Use Committee of the Penn State College of Medicine.
All mice were housed in quarantine for one week prior to the inoculation of the cancer cells. Female nude mice (4–5 weeks old) were subcutaneously injected (100 µL of PBS/flank) with 2.5 × 10^6 HCT-116 colon cancer cells in each flank. Two weeks after inoculation, mice were sorted randomly into treatment and control groups (five mice/group) such that the mean tumor volumes were similar between groups. […] Mice that were injected with only DMSO (vehicle) were used as negative controls. The body weight of animals and the tumor volume were monitored thrice weekly. Tumor volumes were calculated using the formula (L × W^2)/2, wherein L and W are the length and width of the tumor mass measured with a vernier caliper, respectively. At the end of the experiment, mice were sacrificed by euthanizing the animals by CO2 asphyxiation, and the tumors were excised and weighed. Inspection of major morphological changes in organs was also carried out. The antitumor effect was assessed by the tumor growth inhibition (TGI) and the relative increment ratio (T/C) parameters in the aspects of tumor volume and tumor weight, respectively. The TGI was calculated using the following formula: TGI (%) = [1 − (T − T0)/(C − C0)] × 100, wherein T and C are the final tumor volumes measured at the end of the treatment of compound-treated mice and vehicle-treated mice, respectively, whereas T0 and C0 are the tumor volumes measured at the beginning of the treatment of compound-treated mice and vehicle-treated mice, respectively. The T/C value was calculated as WT/WC × 100, wherein WT is the mean of tumor weight of the compound-treated mice, and WC is the mean of tumor weight of the vehicle-treated mice.

[5] = in vitro TGI concentration, Table S1

CC(C)Cc1ccc(C(C)C(=O)[Se][Se]C(=O)C(C)c2ccc(CC(C)C)cc2)cc1 (stereo not shown) [Compound 5, 2-(4-Isobutylphenyl)propanoic diselenoperoxyanhydride]
IC50 [1]: 7.4 ± 0.5 µM | GI50 ([1]; Table S1): 4.7 ± 0.2 µM | LD50 PC-3 ([1]; Table S1): 8.9 ± 1.9 µM | TGI PC-3 [1, 5]: 6.1 ± 0.5 µM | LD50 BEAS-2B ([2]; Table S1): 14.8 ± 4.7 µM | IC50 [2]: 15.9 ± 2.4 µM | GI50 ([2]; Homo sapiens, BEAS-2B, Table S1): 7.8 ± 2.3 µM | IC50 ([2]; Homo sapiens, BEAS-2B): 14 to 19 µM | TGI BEAS-2B [2, 5]: 9.8 ± 1.6 µM | GI50 ([3]; eight cancer cell lines, read-out: GI50 across all the cancer cell lines tested): < 10 µM | IC50 ([3]; eight colon, prostate, breast and lung cancer cell lines, read-out: IC50 in all the cancer cell lines tested): < 10 µM | GI50 ([3]; read-out: GI50 in at least six out of the eight cell lines): < 5 µM | TGI (tumor growth inhibition, tumor volume) ([4]; HCT-116 subcutaneous xenograft, female nude mice, 23 days of treatment, day 38, vs vehicle): 72% | T/C (relative increment ratio, tumor weight) ([4]; HCT-116 subcutaneous xenograft, female nude mice, end of treatment): 38% | body weight of the mice vs vehicle during treatment ([4]; HCT-116 xenograft mice): slight change | toxicity signs (morphological abnormalities in major organs) ([4]; HCT-116 xenograft mice, end of experiment): no evident toxicity signs
